Measurements taken from PubChem BioAssay (NCI).
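How tested: cells in 96-well plates exposed to compound for 48 hours at five concentrations. The concentration for full growth arrest is given as TGI.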

What was measured:
Assay in all cases: growth of human tumour cells (NCI), 48 h
A549 NSCLC = tested on: A549 NSCLC
CAKI-1 renal = tested on: CAKI-1 renal
HCT-15 colon = tested on: HCT-15 colon
HL-60(TB) leukemia = tested on: HL-60(TB) leukemia
IGROV1 ovarian = tested on: IGROV1 ovarian
NCI-H23 lung = tested on: NCI-H23 lung
RPMI-8226 leukemia = tested on: RPMI-8226 leukemia
U251 CNS = tested on: U251 CNS
UACC-257 melanoma = tested on: UACC-257 melanoma
UO-31 renal = tested on: UO-31 renal
A498 renal = tested on: A498 renal
HCC-2998 colon = tested on: HCC-2998 colon
HCT-116 colon = tested on: HCT-116 colon
KM12 colon = tested on: KM12 colon
OVCAR-5 ovarian = tested on: OVCAR-5 ovarian
SF-268 CNS = tested on: SF-268 CNS
NCI-H226 lung = tested on: NCI-H226 lung
MDA-MB-435 = tested on: MDA-MB-435
NCI/ADR-RES ovarian = tested on: NCI/ADR-RES ovarian
PC-3 prostate = tested on: PC-3 prostate

Compound	TGI (A549 NSCLC)	TGI (CAKI-1 renal)	TGI (HCT-15 colon)	TGI (HL-60(TB) leukemia)	TGI (IGROV1 ovarian)	TGI (NCI-H23 lung)	TGI (RPMI-8226 leukemia)	TGI (U251 CNS)	TGI (UACC-257 melanoma)	TGI (UO-31 renal)	TGI (A498 renal)	TGI (HCC-2998 colon)	TGI (HCT-116 colon)	TGI (KM12 colon)	TGI (OVCAR-5 ovarian)	TGI (SF-268 CNS)	TGI (NCI-H226 lung)	TGI (MDA-MB-435)	TGI (NCI/ADR-RES ovarian)	TGI (PC-3 prostate)
CC1OC(n2ccc(=O)[nH]c2=O)C=C(OC(=O)c2ccccc2)C1=O (stereo not drawn)	> 100 µM	> 100 µM	> 100 µM	> 100 µM	> 100 µM	> 100 µM	> 100 µM	81.3 µM	> 100 µM	> 100 µM										
COc1ccc2c(c1)C(=O)N1CCOC1C2C(=O)O (stereo not drawn)	> 100 µM	> 100 µM	> 100 µM	> 100 µM	> 100 µM	> 100 µM	> 100 µM	> 100 µM	> 100 µM	> 100 µM	> 100 µM	> 100 µM	> 100 µM	> 100 µM	> 100 µM	> 100 µM				
N#CC(C(=O)/C(=N/NC(=O)c1ccccc1O)C(C#N)c1ccccc1)c1ccccc1 (stereo not drawn)	> 100 µM		> 100 µM		> 100 µM	> 100 µM	> 100 µM	> 100 µM	> 100 µM	> 100 µM	> 100 µM	> 100 µM	> 100 µM	> 100 µM		> 100 µM	> 100 µM			
COc1ccc(NC(=O)CC(=O)N2N=C(N(CCC#N)c3ccccc3Cl)CC2c2ccccc2)cc1 (stereo not drawn)	> 100 µM	> 100 µM	> 100 µM	> 100 µM	> 100 µM	> 100 µM	> 100 µM	> 100 µM	> 100 µM	> 100 µM	> 100 µM	> 100 µM	> 100 µM	> 100 µM	> 100 µM	> 100 µM	> 100 µM			
CN(C)CCC(O)(c1ccccc1)C(O)(CCN(C)C)c1ccccc1 (stereo not drawn)	> 100 µM	> 100 µM	> 100 µM		> 100 µM	> 100 µM	> 100 µM	> 100 µM	56.7 µM	> 100 µM	> 100 µM	> 100 µM		> 100 µM	> 100 µM	> 100 µM				
CCOc1ccc(NC(=O)C2=C(C)NC(C)=C(C(=O)Nc3ccc(OCC)cc3)C2c2ccc(O)c(OC)c2)cc1	> 100 µM	> 100 µM		> 100 µM	> 100 µM	> 100 µM	> 100 µM	> 100 µM	> 100 µM	> 100 µM	66.7 µM	76.1 µM		> 100 µM	> 100 µM	> 100 µM	> 100 µM			
CCCOC(=O)C1CCC(=O)N1C(=O)C(C)Cl (stereo not drawn)	> 100 µM	> 100 µM	> 100 µM	> 100 µM	> 100 µM	> 100 µM	> 100 µM	> 100 µM	> 100 µM	> 100 µM	> 100 µM	> 100 µM	> 100 µM	> 100 µM	> 100 µM	> 100 µM	> 100 µM			
CCOCN1COCN=C1NC#N	> 100 µM	> 100 µM	> 100 µM	> 100 µM	> 100 µM	> 100 µM		> 100 µM	> 100 µM	> 100 µM	> 100 µM	> 100 µM	> 100 µM	> 100 µM	> 100 µM	> 100 µM	> 100 µM			
N#CCCN(c1ccc(/C=C2\N=C(Cc3ccccc3)OC2=O)cc1)S(=O)(=O)c1ccccc1	> 100 µM	> 100 µM	> 100 µM	> 100 µM	> 100 µM	> 100 µM	> 100 µM	> 100 µM	> 100 µM	> 100 µM	> 100 µM	> 100 µM	> 100 µM	> 100 µM	> 100 µM	> 100 µM	> 100 µM			
CC(=O)O[C@]12CCCCC1C1(O)C(O)CCCCC12 (stereo partly drawn)	> 100 µM		> 100 µM	> 100 µM		> 100 µM	> 100 µM	> 100 µM	> 100 µM	> 100 µM			> 100 µM	> 100 µM		> 100 µM	> 100 µM			
COP(=O)(Cc1ccc(/C=C/C#N)o1)OC	> 100 µM		> 100 µM	> 100 µM	> 100 µM	> 100 µM	> 100 µM	> 100 µM			> 100 µM		> 100 µM	> 100 µM		> 100 µM	> 100 µM	> 100 µM	> 100 µM	
C#CCNC(=O)NCCCC(NC(C)=O)C(=O)NCc1ccccc1 (stereo not drawn)	> 100 µM	> 100 µM	> 100 µM	> 100 µM	> 100 µM	> 100 µM	> 100 µM	> 100 µM	> 100 µM	> 100 µM	> 100 µM	> 100 µM	> 100 µM	> 100 µM	> 100 µM	> 100 µM	> 100 µM			
COC(=O)C1CCC(Nc2ccc(C)cc2C)=N1 (stereo not drawn)	> 100 µM	> 100 µM	> 100 µM	> 100 µM	> 100 µM	> 100 µM	> 100 µM	> 100 µM	> 100 µM	> 100 µM	> 100 µM	> 100 µM	> 100 µM	> 100 µM	> 100 µM	> 100 µM	> 100 µM			
N#CC(/C(=N/NC(=O)C(=O)NN)C(=O)Nc1nc([N+](=O)[O-])cs1)c1ccc(Cl)cc1 (stereo not drawn)	> 100 µM			> 100 µM	> 100 µM	> 100 µM	> 100 µM	> 100 µM	> 100 µM	> 100 µM		> 100 µM	> 100 µM	> 100 µM	> 100 µM	> 100 µM	> 100 µM			
Cn1c2c(c3ccccc31)CCN(CCN1CCN(c3ccccc3)CC1)C2=O	> 100 µM	> 100 µM	> 100 µM	> 100 µM	> 100 µM	> 100 µM	> 100 µM	> 100 µM		> 100 µM			> 100 µM			> 100 µM				
O=C(CC(=O)Nc1cccc(Cl)c1)NNCC(=O)Nc1nnc(-c2ccccc2)s1	> 100 µM	> 100 µM	> 100 µM	> 100 µM	> 100 µM	> 100 µM	86.6 µM	> 100 µM	> 100 µM	> 100 µM	86.8 µM	> 100 µM	> 100 µM	> 100 µM	> 100 µM	> 100 µM	75.7 µM			
COc1ccc(/C(Cl)=C(/c2ccc(O)cc2)c2ccc(OCCN(C)C)cc2)cc1	26.7 µM	27.5 µM	23.3 µM	26 µM	33.2 µM	29.1 µM	21.6 µM	23.3 µM	9.09 µM	19.7 µM		30.5 µM		21.1 µM	26.1 µM	24.7 µM	34.4 µM			
Nc1nc(NCCO)c(N=O)c(=O)[nH]1	> 100 µM	> 100 µM	> 100 µM	> 100 µM	> 100 µM		> 100 µM	> 100 µM	> 100 µM	> 100 µM	> 100 µM		> 100 µM	> 100 µM	> 100 µM	> 100 µM	> 100 µM			
O=C(NCCCCN(CCCNC(=O)C(F)(F)F)Cc1ccc2ccccc2c1)C(F)(F)F	> 100 µM	28.1 µM	31.1 µM	> 100 µM	32.9 µM	44.6 µM		67.2 µM	33.9 µM	20.5 µM	62.2 µM	26.8 µM	33.9 µM	32.1 µM	32.6 µM	31.9 µM	56.8 µM	35.7 µM	32.7 µM	
NC(=O)C#CC#CC#CCO	16.5 µM		3.5 µM	3.01 µM	7.4 µM	3.93 µM		3.72 µM	5.87 µM	3.68 µM	14.9 µM	3.1 µM	2.59 µM	12.2 µM	33.1 µM		27.5 µM			
CCOc1ccc(NC(=O)C(=O)NO)cc1	> 100 µM	> 100 µM	> 100 µM	> 100 µM	> 100 µM	> 100 µM	> 100 µM	> 100 µM	> 100 µM	> 100 µM	> 100 µM	> 100 µM	> 100 µM	> 100 µM	> 100 µM	> 100 µM	> 100 µM			
O=C1[C@@H]2C(c3ccc(Cl)cc3Cl)=NO[C@@H]2C(=O)N1c1ccc(Cc2ccc(N3C(=O)[C@H]4C(c5ccc(Cl)cc5Cl)=NO[C@H]4C3=O)cc2)cc1	> 100 µM	> 100 µM	> 100 µM	48.8 µM	> 100 µM	> 100 µM	> 100 µM		> 100 µM	> 100 µM	> 100 µM	> 100 µM		> 100 µM	> 100 µM	> 100 µM	> 100 µM			
Cc1ccccc1C1OC(=O)c2ccccc21 (stereo not drawn)	> 100 µM		> 100 µM	> 100 µM	> 100 µM	> 100 µM		> 100 µM		> 100 µM	> 100 µM	> 100 µM	> 100 µM	> 100 µM	> 100 µM	> 100 µM	> 100 µM			
CCOC(=O)N1C2C=C(C)C(ON2C(=O)c2ccccc2)C2C(C)C(=O)N21 (stereo not drawn)	> 100 µM		> 100 µM	> 100 µM	> 100 µM	> 100 µM	> 100 µM	> 100 µM	> 100 µM	> 100 µM	> 100 µM	> 100 µM	> 100 µM	> 100 µM	> 100 µM	> 100 µM	> 100 µM			
NC(=O)c1cccc(C2OC(COP(=O)(O)O)C(O)C2O)c1 (stereo not drawn)	> 50 µM	> 50 µM	> 50 µM	> 50 µM	> 50 µM	> 50 µM	> 50 µM	> 50 µM	> 50 µM	> 50 µM	> 50 µM	> 50 µM	> 50 µM	> 50 µM	> 50 µM	> 50 µM	> 50 µM			
O=C1Cc2c([nH]c3c(Cl)cccc23)-c2ccccc2N1	> 100 µM		> 100 µM	> 100 µM	> 100 µM	> 100 µM	> 100 µM	> 100 µM		> 100 µM	> 100 µM		> 100 µM	> 100 µM	> 100 µM	> 100 µM	> 100 µM	> 100 µM		> 100 µM
Nc1ccc2nc(NCc3ccc(F)cc3)cnc2c1	> 100 µM		> 100 µM	> 100 µM	> 100 µM	> 100 µM	> 100 µM	> 100 µM		> 100 µM		> 100 µM	> 100 µM	> 100 µM	> 100 µM	> 100 µM	> 100 µM			
CCCCCCCc1cc(OC(=O)c2c(C)cc(OC)cc2O)cc(O)c1C(=O)O	83.9 µM	43.4 µM		68.3 µM	55.3 µM	43.1 µM	74 µM	32.1 µM	87.7 µM	30.6 µM	38 µM	35.6 µM		46.2 µM	32.1 µM	45.9 µM				
CN(C)c1nc2oc(-c3ccccc3)c(-c3ccccc3)c2c2nncn12	> 100 µM	> 100 µM	> 100 µM		> 100 µM	> 100 µM	> 100 µM	> 100 µM	> 100 µM	> 100 µM	> 100 µM	> 100 µM	> 100 µM	> 100 µM	> 100 µM	> 100 µM	> 100 µM	> 100 µM	> 100 µM	
COc1ccccc1/C=C(\C#N)C(=O)c1ccccc1	> 100 µM	> 100 µM	> 100 µM	> 100 µM	> 100 µM	> 100 µM	> 100 µM	> 100 µM	> 100 µM	> 100 µM	> 100 µM	> 100 µM	> 100 µM	> 100 µM	> 100 µM	> 100 µM	> 100 µM			
